Measured values as given in US10537610B1, “Peptide for inhibition of cancer” (priority 2018, dated 2020).
Non-standard residues stand in square brackets, D forms with d. Residues, ends and D or L forms follow the SMILES beside them.

Columns and labels:
[1] = tested on: breast cancer cells (MCF-7, MDA-MB-231) across HMEC-1 monolayer; assay: Transmigration (TEM) of breast cancer cells across the endothelial monolayer; type: cell-based, human
Method: (§1) The peptides were synthesized and purified by LifeTein, LLC (Somerset, N.J., USA) with the purity of not less than 95% using PeptideSyn™ technology that incorporates solid phase fluorenylmethyloxycarbonyl (Fmoc) chemistry. The cells were treated with the peptide P4D for 0, 1, 5, or 24 hours at a concentration of 500 μM. The cells treated with the Scrambled peptide P4D (Scr; 500 μM; 0, 1, 5, or 24 hours incubation time) were used as a negative control. In order to provide the positive control of the junctions tightening for impedance-based measurements of endothelial permeability, the cells were incubated with the potent activator of TJ assembly, forskolin (FSK; BioShop, Burlington, ON, Canada), for 24 hours at a concentration of 10 μM.
HMEC-1 endothelial cells were cultured in fibronectin-coated Transwell units with polycarbonate filter and 8 μm pores (Costar, Corning, N.Y., USA) in 24-well plates for 2 days at 37° C. to form a confluent monolayer. Human breast cancer (MCF-7, MDA-MB-231) or non-tumorigenic (MCF-10A) human breast cells were starved overnight and labeled with the green fluorescent marker CellTracker Green CMFDA Dye (Molecular Probes, Eugene, Oreg., USA). An aliquot (1×10^5/well) of fluorescent breast cancer cells in serum-free medium was added in the top of the Transwell chamber, whereas the conditioned medium was used as a chemoattractant in the lower compartment. Non-tumorigenic human breast cell line MCF-10A was used as control. The wells containing the serum-free medium in the lower compartment were used to estimate the background migration. The breast cancer cells were allowed to migrate across the endothelial monolayer for 6 hours in a humidified incubator (temperature of 37° C. and 5% CO2 atmosphere) with or without the previously specified factors or with their combinations.
At the end of the transmigration assay, non-migrated cells were gently wiped out from the inner surface of the membrane with cosmetic cotton swab. The assay was documented at 200× magnification (10× eyepiece and 20× objective) with fluorescent inverted microscope Axio Vert.A1 (Zeiss, Oberkochen, Germany) and high-performance CMOS 2.3-MP AxioCam 702 mono digital camera (Zeiss) controlled by ZEN software, version 2.3 (Zeiss). The migrated cells (five randomly chosen fields of each well) were counted using the Cell Counter tool of the ImageJ software. Cell migration towards serum-free medium was treated as background and subtracted from the corresponding numbers of cells migrated towards conditioned medium.

[2] = tested on: MCF-10A cells across HMEC-1 monolayer; assay: Transmigration (TEM) of MCF-10A cells across the endothelial monolayer; type: cell-based, human
Method: as §1
HMEC-1 endothelial cells were cultured in fibronectin-coated Transwell units with polycarbonate filter and 8 μm pores (Costar, Corning, N.Y., USA) in 24-well plates for 2 days at 37° C. to form a confluent monolayer. […]
At the end of the transmigration assay, non-migrated cells were gently wiped out from the inner surface of the membrane with cosmetic cotton swab. […] The migrated cells (five randomly chosen fields of each well) were counted using the Cell Counter tool of the ImageJ software. […]

soluble JAM-A = assay: ELISA of JAM-A antigen in plasma, murine 4T1 breast cancer model; type: in vivo, mouse; conditions: 4T1 tumor-bearing BALB/c mice and control littermates; Tβ4 15 μg/kg or TGF-β1 5 μg/kg i.p., 21 days
Method: All in vivo experiments were carried on female BALB/c mice aged 8 to 12 weeks purchased from Animal House of Institute of Biology, University of Bialystok (Bialystok, Poland). The mice were housed under standard conditions at the Animal House of the Medical University of Lodz (Lodz, Poland). All animal procedures and protocols were conducted in accordance with the Guide for the Care and Use of Laboratory Animals of the National Animal Care Committee and were approved by Local Ethical Committee for Animal Research in Lodz (license number 9/LB51/2017 from Jun. 2, 2017). All efforts were made to minimize animal suffering.
Murine 4T1 cells were purchased from the American Type Culture Collection (ATCC, Manassas, Va., USA). The cells were maintained in RPMI-1640 (ATCC) with 10/o fetal bovine serum (FBS) and cultured in tissue culture flasks to 80% confluence. […]
The unbound biotinylated antibody was washed away and HRP-conjugated streptavidin was added to the wells. […] Regarding the both protocols, the enzyme-substrate (HRP-TMB) reaction was terminated by the addition of a sulfuric acid solution and the color change was measured spectrophotometrically at a wavelenght of 450 nm using the Wallac 1420 VICTOR2 Multilabel Counter (PerkinElmer). The concentration of target antigen in the samples was determined by comparing the optical density of the samples to the standard curve.

For `CC(C)[C@H](NC(=O)[C@H](CO)NC(=O)[C@H](N)CCCCN)C(=O)N[C@H](C(=O)N[C@H](CCCNC(=N)N)C(=O)N[C@@H](CCC(=O)O)C(=O)N[C@@H](CC(=O)O)C(=O)N[C@H](C(=O)NCC(=O)N[C@H](C(=O)N[C@@H](Cc1ccc(O)cc1)C(=O)N[C@H](C(=O)N[C@@H](CS)C(N)=O)[C@@H](C)O)[C@@H](C)O)[C@@H](C)O)[C@@H](C)O` [Peptide P4D, NH2-(dK)-SVT-(dR)-EDTGTYTC-CONH2] (H-[dK]SVT[dR]EDTGTYTC-NH2), the “transmigration of breast cancer cells across cytokine-activated endothelial monolayer” value ([1]; P4D 500 μM, HMEC-1 preincubated with TNF/IFN) was “hindered”, the “Tβ4-activated TEM” value ([1]; P4D 500 μM, HMEC-1 preincubated with Tβ4 200 nM for 24 hours, all tested MECs (MCF-7, MDA-MB-231, MCF-10A)) was “abrogated the Tβ4-activated TEM” and the “degree of TEM inhibition, MCF-7 cells compared with other MECs” value ([1]; P4D 500 μM, inflamed endothelium) was “highest degree of TEM inhibition”. For the same compound, the “transmigration of MCF-10A cells across cytokine-treated endothelium” value ([2]; P4D 500 μM, TNF/IFN-treated HMEC-1) was “markedly inhibited”.

For “Thymosin β4 (SDKPDMAEIEKFDKSKLKKTETQEKNPLPSKETIEQEKQAGES; not fully specified; Thymosin beta-4; UniProt P62328 2-44, looked up) [Tβ4]”, the “transmigration of MCF-7 and MDA-MB-231 across HMEC-1 monolayer, effect of Tβ4” value ([1]; Tβ4 200 nM, 24 hours, vs. CTRL (non-treated) cells) was “slightly stimulated”, the “JAM-A level in plasma” value (soluble JAM-A) was “decrease JAM-A level in plasma” and the “TEM of MCF-10A cells, effect of Tβ4” value ([2]; Tβ4 200 nM, 24 hours, in the presence of the Scr peptide) was “significantly elevated the TEM of MCF-10A cells”.
